From patent US20210121438A1, “METHODS FOR TREATING OR PREVENTING CONFORMATION DISEASES AND METHODS FOR DRUG SCREENING” (GARAGE BRAIN SCIENCE CO., LTD, priority 2018, published 2021) come the findings set out here.

Common to all, as to assay type: cell-based
Data set [1] has as its system GFP-TDP-43-IIPLD inclusion-expressing 293T cells. The data set is described as follows: TDP-43-IIPLD misfolded aggregates in transfected 293T cells (microscopy). As for the experimental part:
Cell Culture and Drug Treatment: 293T cells were used throughout the experimental studies. 293T cells were grown in Dulbecco's modified Eagle's medium (DMEM)/F12, which was supplemented with 10% fetal bovine serum, 1% penicillin/streptomycin and 1% L-glutamate. Primary cultures of rat hippocampal neurons were prepared from embryonic day 17 rat embryos as previously described by (Wang et al, TDP-43, the signature protein of FTLD-U, is a neuronal activity-responsive factor. J. Neurochem. 105, 79T-806 (2008)). All procedures for handling the rat were carried out in accordance with the guidelines approved by the Institutional Animal Care and Utilization Committee, Academia Sinica. Hippocampal cells were plated on poly-1-lysine-coated coverslides at low density (10,000 cells per cm2) and cultured in the neurobasal medium/B27 (Invitrogen). The 293T cells were transfected using the calcium phosphate protocol according to the manufacturer's instructions and as previously described by Wang et al. (Wang et al., ProcNatlAcadSci USA. 99, 13583-13588 (2002). All of the plasmid constructs were described in Wang et al., Nature Communication, 2012). 293T cells (1×10^5) were seeded in each well of a six-well plate and incubated overnight in a 37° C. incubator with 5% CO2. To determine the effects of off-pathway stabilizers on the reduction of pathological-like aggregates, the cells were treated with baicalein and EGCG for 12, 24, or 48 h with the indicated concentrations (25 or 50 μM).
GFP-TDP-43 pathological-like (GFP-TDP-43-IIPLD) inclusion-expressing 293T cells were treated with or without 50 μM baicalein for 12 h following microscopic analysis and Western blotting validation. […] (FIG. 2c).

In data set [2] the target is T1, TDP-43 polymers (Homo sapiens, UniProt Q13148).
T1 construct: endogenous in cells; host or cells: 293T
The data set is described as follows: Western blotting of TDP-43 polymers in nuclear, cytosolic and urea fractions. To be noted: EGCG-treated cells. Here is the method: Solubility Assay of TDP-43 and p53: Cells with or without transfection of TDP-43-FL or TDP-43-Q303P were lysed with RIPA buffer (50 mM Tris, 150 mM NaCl, 1 mM EDTA, 1% NP-40, pH 7.4), and the lysate was further fractionated by centrifugation at 16,000 g for 5 min at 4° C. The insoluble pellets were then dissolved in 8 M urea/50 mM Tris (pH 8.0). The proteins were identified by Western blotting using a polyclonal TDP-43 antibody or a monoclonal p53 antibody.
TDP-43 proteinopathies in FTLD/ALS with the VCP/97 mutation R155H have been characterized. The VCP/97 mutation R155H alters the functions of VCP/97, redistributes TDP-43 to the cytosol, and leads to form-insoluble aggregates of TDP-43.
(Immunoblotting shows a protein as a band on a membrane.)

The test system of data set [3] is TDP-43-mediated CFTR exon 9 skipping. Nature of the data set: Alternative splicing assay (in vivo splicing, CFTR minigene). Conditions: EGCG. As for the experimental part: Alternative Splicing Assay: TDP-43-mediated CFTR exon 9 skipping assays were performed as previously described. Briefly, cells were cotransfected with TDP-43 plasmid, hCF-(TG)13(T)5 minigenes and the indicated plasmids, including VCP/p97 wt, VCP/p97 QQ, HSPB1, lamin A or progeria, or HSPB1 siRNA. Total RNA of transfectanted cells was isolated by TRIzol reagent (Invitrogen), and RT-PCR was carried out by Superscript III (Invitrogen) using specific primers to amplify exons 8-10 of CFTR according to the manufacturer's protocol. The relative amounts of cDNA were validated on 1.3% agarose gels. […]

For data set [4], the system named is four p53 strains. Nature of the data set: Cell viability of the four p53 strains under stress (MTT assay). The source says:
Our clonally expanded system provided an excellent cellular model to precisely investigate the oncogenicity of strain-specific p53 amyloid conformations in vivo. We analyzed cell growth of the four p53 amyloid strains by examining cell cycle flow and counting doubling time (FIGS. 17a and 17b). […] In contrast to the toxic amyloids observed in neurodegenerative contexts, p53 amyloids appear to promote cell growth. Additionally, to assess the stress response, the four cell strains were challenged with spermidine and H2O2 (FIGS. 17c and 17d). Cell viability was impaired under all stress conditions. […] To further identify key pathophysiology pathways involved in tumorigenesis of p53 aggregates' gain-of-function, we performed a serial screen by western blotting and compared the expression of cancer-related proteins in the four strains. […] Additionally, a group of epigenetic regulators altered their expression in present of p53 aggregates. […] Together with the horizontal transmissibility shown in FIG. 16, the three endogenous p53 aggregates were able to switch into malignant cancer cells including activating EMT, increasing cancer stemness, and dramatically altering epigenetic regulators, and the strain-specific p53 amyloids can propagate oncogenic inheritance via a protein-based mechanism.

Data set [5] has as its system p53 aggregates in 293T cells. The data set is described as follows: p53 aggregates in 293T cells / p53 strains (immunofluorescence with p53 antibody). As for the experimental part: Immunohistochemistry: Fluorescence staining was performed as described previously (Wang et al., 2012). Cells were transfected with or without plasmids or siRNAs and grown for 24 to 48 hr. Cells were fixed with 3.7% paraformaldehyde in PBS at RT for 15 min and then permeabilized with 0.1% Triton X-100. The fixed cells were incubated with primary antibodies at RT for 2 hr followed by incubation with Cy2- or Cy3-labeled secondary antibodies (Molecular Probes). Slides were mounted using Vectashield DAPI H-1200 (Vector). Cellular fluorescence images were collected using an LSM710 META laser-scanning confocal microscope (Zeiss).
We observed a striking degree of heterogeneity among p53 aggregates in the cytosol of 293T cells by immunofluorescence with a p53 antibody, including long fibers (5-10 μm), short fibers (1.6-3.2 μm) and punctate aggregates (0.5-1 μm in diameter) (FIG. 16a, arrows). The length of the p53 fibers and p53 aggregates were analyzed (FIG. 16b). […] To determine whether these heterogeneous p53 amyloid patterns are inherited or are random conversions, we subcultured and isolated single colonies from heterogeneous pools of cells. […] We obtained four phenotypes shown in FIG. 16a, including long and short fibers, puncta, and diffuse nuclear staining, and these phenotypes were stably propagated (FIG. 16e). We termed these p53 phenotypes of the isolated strains as follows: p53 [L] (Long fibers), p53 [S] (Short fibers), p53 [P] (Puncta) and p53-NVA (No Visible Aggregates).
Additionally, we treated 293T cells with an Aβ amyloid disassembling agent, baicalein, following immunofluorescence staining with anti-p53 antibodies.

Where a SMILES comes first, the peptide text is derived from it. The star is where a group is joined. Cbz = O=C(OCc1ccccc1)*

T1 sequence (Q13148 whole entry): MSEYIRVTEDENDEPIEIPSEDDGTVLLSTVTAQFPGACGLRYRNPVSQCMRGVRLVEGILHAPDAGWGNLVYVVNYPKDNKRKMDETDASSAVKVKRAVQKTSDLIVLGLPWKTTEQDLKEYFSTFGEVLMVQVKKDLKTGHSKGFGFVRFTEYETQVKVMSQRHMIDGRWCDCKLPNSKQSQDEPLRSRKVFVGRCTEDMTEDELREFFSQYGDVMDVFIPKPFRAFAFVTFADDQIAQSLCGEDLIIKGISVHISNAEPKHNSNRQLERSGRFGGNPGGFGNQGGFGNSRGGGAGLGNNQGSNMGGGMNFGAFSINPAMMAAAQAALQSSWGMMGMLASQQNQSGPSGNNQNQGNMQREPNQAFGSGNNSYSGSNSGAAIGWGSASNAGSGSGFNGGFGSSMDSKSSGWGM

With `O=C(O[C@@H]1Cc2c(O)cc(O)cc2O[C@@H]1c1cc(O)c(O)c(O)c1)c1cc(O)c(O)c(O)c1` [EGCG], the “TDP-43-IIPLD aggregates, statistical analysis of dose dependence” value in data set [1] is “disassembled the formed TDP-43 misfolded aggregates in a dose-dependent manner”. Besides, the “assembly of TDP-43-IIPLD proteinaceous nucleating particles” value in data set [1] (50 μM) was “reduce TDP-43 proteinaceous nucleating particles”. Besides, the TDP-43 species result in data set [2] was “increased the level of the 130 kD TDP-43 instead of the high-order TDP-43 polymers”. Moreover, the “correction of TDP-43 dysfunction on mRNA processing” value in data set [3] is “insufficient to correct TDP-43 dysfunction on mRNA processing”.
Turning to `OO` [H2O2], the cell viability result in data set [4] (four p53 strains challenged with H2O2) is listed as “impaired”. In addition, the p53 aggregate formation entry in data set [5] (H2O2 treatment) was “induced p53 aggregate formation”.
Consider `CC(C)C[C@@H](C=O)NC(=O)[C@H](CC(C)C)NC(=O)[C@H](CC(C)C)NC(=O)OCc1ccccc1` [MG132] (Cbz-Leu-Leu-Leu-aldehyde), for which, in data set [5] (293T cells, MG132), the “form of p53 fibers” value is given as “converted the three types of p53 fibers into irregular inclusions” and the p53 aggregates result is recorded as “significantly increased p53 aggregates”.
On to `NCCCCNCCCN` [spermidine], for which the cell viability entry in data set [4] (four p53 strains challenged with spermidine) was “impaired”.
